{
  "source": "patent US8846747B2",
  "about": "“Compounds and methods for altering lifespan of eukaryotic organisms” (University of Rochester, priority 2009, dated 2014)",
  "key": {"[1]": {"test_system": "strain FY839 (healthy wild-type)", "assay": "Toxicity of compounds by yeast growth assay", "assay_type": "cell-based", "settings": "FY839, inset in FIG. 2", "experimental": "The toxicity of compounds C1-1, C1-2, C1-3, C1-4, and C1-5 in yeast was assessed by determining their effects on growth of a wild-type yeast strain. FIG. 2 is a graphical representation of the toxicity data. The yeast used was strain FY839 (healthy wild-type) growing in SCD. At 12 hours all were in log phase. […] This concentration is many-fold higher than the effective concentrations of these compounds as assessed by DeaD lifespan assays."}, "[2]": {"test_system": "mice exposed to cigarette smoke", "assay": "cigarette smoke-induced inflammation of mouse lungs", "assay_type": "in vivo", "settings": "ip 5 mg/kg", "experimental": "FIG. 4. […] To obtain the data summarized in FIG. 4, Mice were exposed to cigarette smoke or filtered air for 3 consecutive days. They were treated ip with vehicle or Cob 1-2 (5 mg/kg) in DMSO: 1 group was treated daily during smoke exposure period and 1 group was pre-treated with 2 doses per week during the week prior to the smoke exposure and daily during the smoke exposure. On day 4, mice were sacrificed. Their lungs were washed and BAL fluid was stained for Europhiles count. The lungs were homogenized for ELISA quantifying MCP-1 levels.\nIn vivo prevention of cigarette smoke-induced inflammation of mouse lungs: Exposing mice to cigarette smoke induces an acute inflammatory response in the lungs. Cigarette smoke-induced inflammation in the lungs was assessed by quantifying the ratio of macrophages to Europhiles in bronchoalveolar lavage fluid (BALF), and levels of pro-inflammatory markers such as MCP-1 in lung tissue (Yao H, Edirisinghe I, Rajendrasozhan S, Yang S R, Caito S, Adenuga D, Rahman I. Cigarette smoke-mediated inflammatory and oxidative responses are strain-dependent in mice. Am. J. Physiol Lung Cell Mol Physiol 2008; 294: L1174-L1186.)."}, "[3]": {"test_system": "DeaD strain BB579", "assay": "yeast Death of Daughters (DeaD) lifespan assay, reversal of nicotinamide (NAM) lifespan shortening", "assay_type": "cell-based, S. cerevisiae (yeast)", "settings": "Saccharomyces cerevisiae, BB579, read-out: C50 (concentration that yields half the maximal activity) by DeaD assay", "experimental": "The C50 (50% maximal activity) is a measure of the efficacy of a compound as a LAC and is determined by quantifying the dose-response curve for each LAC by DeaD assay in the presence and absence of nicotinamide. The C50 is the concentration of LAC that yields half the maximal activity. Dose response curves will generally peak and then decline. The decline is most likely due to toxicity at higher LAC concentrations. The C50 is determined relative to the maximal lifespan extension (the peak value). C50 values are provided for C1-5.\nThe compounds listed in Table 1 of Example 3 were assessed for their anti-aging activities using the yeast Death of Daughters (DeaD) explicative lifespan assay. Specifically, the compounds were assessed for their capacity to reverse the lifespan shortening effect of exogenous nicotinamide (NAM), which is a known inhibitor of the anti-aging protein Sir2p (Anderson et al., 2003; Bitterman et al., 2002). These compounds were compared to the activities of known cluster 1 compounds, S3-5, and #3-11.\n“Activity” here is defined herein as the fold improvement in DeaD lifespan in the presence of 0.75 mM NAM relative to lifespan in the absence of cluster 1 compounds, over a range of compound concentrations between 0.5 nm-1 μm. This “activity” value is a means of assessing the usefulness of a compound as a LAC. The assays were performed as follows. DeaD strain BB579 was grown overnight in a permissive (galactose-containing) medium to mid-log phase, and then diluted to an OD600 of 0.0001 in restrictive (glucose-containing) medium with 0.75 mM NAM and the compound to be tested. Cells were then incubated at 30° C. for 3 days, with shaking and OD600 measurement every 20 minutes. The OD600 reading after 60 hours in restrictive medium, normalized to the same measurement for the “no drug” control, was used as the number for comparison.\nFive of the compounds with higher activity than S3-5 were selected for further study and were designated C1-1, C1-2, C1-3, C1-4, and C1-5 (see Table 2, Example 4). All data in FIGS. 1A(1)-(6) are from media containing 0.75 mM NAM. Note the different ranges of the X axes in FIGS. 1A(1)-(6)—very different C50 values for the compounds of the present invention compared the known C1 cluster compounds. […] All five had C50 values below 50 nM, while the C50 value for S3-5 was about 650 nM, and the C50 for S1-9 was about 350 nM."}, "[4]": {"test_system": "RAW 264.7 cells", "assay": "LPS-induced TNF-α secretion from RAW 264.7 cells (ELISA)", "assay_type": "cell-based, murine", "settings": "compound 1 micromolar, LPS 10 ng/ml for 6 hrs; FIG. 3", "experimental": "FIG. 3. […] To obtain the data summarized in FIG. 3, RAW […] cells were incubated with Scrims (compounds of present invention) (1 uM), PI3K inhibitor positive control (LY-294002; 25 uM) or vehicle (DMSO) for 1 hr. LPS (10 ng/ml) was added to the medium. 6 hrs post LPS administration medium was collected and analyzed for TNFa levels using ELISA.\nIn vitro anti-inflammatory activity in RAW 264.7 cells (murine leukaemic monocyte macrophage cell line): Lipopolysaccharide (LPS)-induced secretion of cytokines from RAW cells is a recognized in vitro assay for anti-inflammatory drugs. The anti-inflammatory activities of C1-1, C1-2, C1-3, C1-4, and C1-5 in the RAW cell model. RAW cells exposed to LPS were incubated with each of the five molecules at 1 micromolar concentration. The PIK3 inhibitor LY-294002 was used at 25 micromolar as a positive control. […] LPS was administered at 10 ng/ml for 6-hrs. TNF-α levels were quantified by ELISA assay. Results are presented as % of control with standard deviations of three replicates."}, "[5]": {"test_system": "TNF-α-treated mice", "assay": "TNF-α-induced vascular inflammation in mice (leukocyte rolling in mesenteric vessels)", "assay_type": "in vivo, mouse", "settings": "ip 6 mg/kg once (1 hour) or twice (24 hours and 1 hour) prior to TNF-α; compared to TNF-α-treated control mice; FIG. 5", "experimental": "FIG. 5. Graphical results showing in vivo reduction of TNF-α-induced vascular inflammation in mice. To obtain the data summarized in FIG. 5, mice (3 each group) were injected with vehicle or Cob 1-2 (ip, 6 mg/kg in DMSO). Two treatments were used: i) 1 dose an hour before TNFa and, ii) 2 doses (24 hrs and 1 hr before TNFa ). TNFa was administered ip (20 ug/kg). 3 hours post TNFa administration, mice were anesthetized, their mesentery was exposed and placed on an inverted fluorescent microscope stage. Lymphocyte velocities within veins was determined by analyzing video recordings\nIn vivo reduction of TNF-α-induced vascular inflammation in mice: The affects of drugs on vascular inflammation can be assessed by quantifying the rates of leukocytes rolling in mouse mesenteric vessels following intraperitoneal administration of TNF-α (Craig N. Morrell, Kenji Matsushita, and Charles J. Lowenstein. A Novel Inhibitor of N-Ethylmaleimide-Sensitive Factor Decreases Leukocyte Trafficking and Peritonitis. JPET 2005; 314:155-161). Vascular inflammation was induced in two groups of mice that were treated with C1-2 either once (1 hour) or twice (24 hours and 1 hour) prior to TNF-α administration."}},
  "data": [
    {"smiles": "CCC(=O)C1C(=O)CC(c2ccc(F)cc2)CC1=O", "note": "(stereo not drawn) [SRI# 22790, 1,3-cyclohexanedione, 2-propanoyl-5-[4-fluorophenyl]-]", "values": [
      {"measurement": "toxic effects on growth at concentrations below 1 μM", "setting": "[1]", "result": "little or no toxic effects on growth"},
      {"measurement": "total Europhiles count in BAL fluid", "setting": "[2]; 3 days smoke exposure, FIG. 4A", "result": "lowered total Europhiles count to near background levels"},
      {"measurement": "MCP-1 levels in lungs", "setting": "[2]; lung homogenate ELISA, FIG. 4B", "result": "decreased in a statistically significant fashion"},
      {"measurement": "EC50", "setting": "[3]", "result": "< 50", "unit": "nM"},
      {"measurement": "reduction of secreted TNF-α relative to vehicle treated cells", "setting": "[4]", "result": "exhibited anti-inflammatory activity"},
      {"measurement": "leukocytes velocity in mesenteric vessels", "setting": "[5]", "result": "significantly increased leukocytes velocity"}
    ]}
  ]
}
